In patent US20240041042A1, “1-(PYRIDYL)-5-AZINYLPYRAZOLE DERIVATIVES, AND THEIR USE FOR CONTROL OF UNDESIRED PLANT GROWTH” (Bayer Aktiengesellschaft, priority 2020, published 2024):
Read-outs that look alike come from different tables or passages of the source.

Legend:
Type in all cases: in vivo
[1] = tested on: Amaranthus retroflexus (AMARE); assay: Pre-emergence herbicidal action against AMARE; settings: visual scoring after about 3 weeks vs untreated controls
Outline: (§1)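 Herbicide applied to soil before seedling emergence, at 600 l/ha spray volume with 0.5% additive and rates up to 320 g/ha. Evaluation: visual percentage effect, about 3 weeks later, greenhouse-grown pots compared with untreated ones.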

[2] = tested on: Echinochloa crus-galli (ECHCG); assay: Pre-emergence herbicidal action against ECHCG; settings: dosage 320 g/ha
Outline: as §1

[3] = tested on: Abutilon theophrasti (ABUTH); assay: Post-emergence herbicidal action against ABUTH; settings: visual rating about 3 weeks after treatment vs untreated controls (100% = plants have died, 0% = like control plants)
Outline: (§2)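 Doses of 320 g/ha or lower, suffixes a, b and c marking different dosages, were applied post-emergence at the one-leaf stage in 600 l/ha water with 0.5% additive. Damage was assessed visually after about 3 weeks in the greenhouse.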

[4] = tested on: Matricaria inodora (MATIN); assay: Pre-emergence herbicidal action against MATIN
Outline: as §1

Setaria viridis (SETVI) [5] = assay: Post-emergence herbicidal action against SETVI
Outline: as §2

Lolium rigidum (LOLRI) [6] = assay: Post-emergence herbicidal action against LOLRI; settings: dosage 320 g/ha
Outline: as §2

Setaria viridis (SETVI) [7] = assay: Pre-emergence herbicidal action against SETVI; settings: dosage 320 g/ha
Outline: as §1

[8] = tested on: Polygonum convolvulus (POLCO); assay: Pre-emergence herbicidal action against POLCO; settings: dosage 320 g/ha
Outline: as §1

Viola tricolor (VIOTR) [9] = assay: Pre-emergence herbicidal action against VIOTR
Outline: as §1

Lolium rigidum (LOLRI) [10] = assay: Pre-emergence herbicidal action against LOLRI; settings: dosage 320 g/ha
Outline: as §1

Oryza sativa (ORYSA) [11] = settings: crop plant compatibility, effect in comparison to untreated controls
Outline: (§3)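 Foliar application at the one-leaf stage: WP/EC formulation, 0.5% additive, 600 l/ha water. Greenhouse-grown in sandy loam. Endpoint is visual % injury relative to untreated controls at about 3 weeks.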

[12] = tested on: Pharbitis purpurea (PHBPU); assay: Pre-emergence herbicidal action against PHBPU; settings: dosage 320 g/ha
Outline: as §1

[13] = tested on: Amaranthus retroflexus (AMARE); assay: Post-emergence herbicidal action against AMARE
Outline: as §2

[14] = tested on: Polygonum convolvulus (POLCO); assay: Post-emergence herbicidal action against POLCO
Outline: as §2

Avena fatua (AVEFA) [15] = assay: Post-emergence herbicidal action against AVEFA; settings: 320 g/ha, visual rating about 3 weeks after treatment
Outline: as §2

[16] = tested on: Triticum aestivum (TRZAS); settings: pre-emergence, 80 g/ha, crop plant compatibility, in comparison to untreated controls
Outline: (§4)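 Scoring: visual, % of untreated control, about 3 weeks after a pre-emergence application to the soil surface. Application used WP or EC formulations diluted in water with 0.5% additive at 600 l/ha; dosage levels are marked by suffixes a, b and c.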

[17] = tested on: Echinochloa crus-galli (ECHCG); assay: Post-emergence herbicidal action against ECHCG
Outline: as §2

Viola tricolor (VIOTR) [18] = assay: Post-emergence herbicidal action against VIOTR
Outline: as §2

[19] = tested on: Matricaria inodora (MATIN); assay: Post-emergence herbicidal action against MATIN; settings: dosage 320 g/ha
Outline: as §2

[20] = tested on: Verconica persica (VERPE); assay: Post-emergence herbicidal action against VERPE; settings: 320 g/ha, VERPE
Outline: as §2

Avena fatua (AVEFA) [21] = assay: Pre-emergence herbicidal action against AVEFA; settings: 320 g/ha, visual scoring after about 3 weeks vs untreated controls
Outline: as §1

[22] = tested on: Alopecurus myosuroides (ALOMY); assay: Pre-emergence herbicidal action against ALOMY; settings: 320 g/ha; scored visually after about 3 weeks; 100% = plants have died
Outline: as §1

Zea mays (ZEAMX) [23] = settings: crop plant compatibility, 80 g/ha, effect vs untreated controls
Outline: as §3

[24] = tested on: Alopecurus myosuroides (ALOMY); assay: Post-emergence herbicidal action against ALOMY; settings: 320 g/ha, visual rating about 3 weeks after treatment vs untreated controls (100% = plants have died, 0% = like control plants)
Outline: as §2

Zea mays (ZEAMX) [25] = settings: pre-emergence, 80 g/ha, crop plant compatibility, in comparison to untreated controls
Outline: as §4

Oryza sativa (ORYSA) [26] = settings: pre-emergence, 80 g/ha, crop plant compatibility, in comparison to untreated controls
Outline: as §4

[27] = tested on: Abutilon theophrasti (ABUTH); assay: Pre-emergence herbicidal action against ABUTH; settings: Dosage column 320 g/ha (title prints 3200 g/ha); scored visually after about 3 weeks; 100% = plants have died
Outline: as §1

[28] = tested on: Triticum aestivum (TRZAS); settings: crop plant compatibility, effect vs untreated controls
Outline: as §3

[29] = tested on: Pharbitis purpurea (PHBPU); assay: Post-emergence herbicidal action against PHBPU; settings: dosage 320 g/ha
Outline: as §2

[30] = 80 g/ha, visual rating about 3 weeks after treatment vs untreated controls (100% = plants have died, 0% = like control plants)
[31] = 320 g/ha, visual rating about 3 weeks after treatment

Row | Compound | Pre-emergence action against AMARE in % ([1]; 80 g/ha) [%] | Pre-emergence action against AMARE in % ([1]; 320 g/ha) [%] | Pre-emergence action against ECHCG in % [2] [%] | Post-emergence action against SETVI in % (Setaria viridis (SETVI) [5]; dosage 320 g/ha) [%] | Post-emergence action against LOLRI in % (Lolium rigidum (LOLRI) [6]) [%] | Pre-emergence action against SETVI in % (Setaria viridis (SETVI) [7]) [%] | Pre-emergence action against POLCO in % [8] [%] | Pre-emergence action against VIOTR in % (Viola tricolor (VIOTR) [9]; 320 g/ha, Viola tricolor) [%] | Pre-emergence action against LOLRI in % (Lolium rigidum (LOLRI) [10]) [%] | Post-emergence action against ORYSA in % (Oryza sativa (ORYSA) [11]; 80 g/ha) [%] | Pre-emergence action against PHBPU in % [12] [%] | Post-emergence action against AMARE in % [13, 30] [%] | Post-emergence action against AMARE in % [13, 31] [%] | Post-emergence action against POLCO in % ([14]; dosage 80 g/ha) [%] | Post-emergence action against POLCO in % ([14]; dosage 320 g/ha) [%] | Post-emergence action against AVEFA in % (Avena fatua (AVEFA) [15]) [%] | Pre-emergence action against TRZAS in % [16] [%] | Post-emergence action against ECHCG in % ([17]; dosage 320 g/ha) [%] | Post-emergence action against VIOTR in % (Viola tricolor (VIOTR) [18]; 80 g/ha) [%] | Post-emergence action against VIOTR in % (Viola tricolor (VIOTR) [18]; 320 g/ha) [%] | other results
1 | O=C(O)CSc1nn(-c2ccccn2)c(-c2cncc(F)c2)c1Cl [Example I-217] | 80 | 100 | 90 | 90 | 80 | 90 | 80 | 90 | 100 | 0 | 90 | 90 | 90 | 80 | 80 | 90 | 0 | 90 | 80 | 90 | Post-emergence action against ABUTH in % ([3]; 80 g/ha): 80%; Post-emergence action against ABUTH in % ([3]; 320 g/ha): 90%; Pre-emergence action against MATIN in % ([4]; dosage 80 g/ha): 80%; Pre-emergence action against MATIN in % ([4]; dosage 320 g/ha): 90%; Post-emergence action against SETVI in % (Setaria viridis (SETVI) [5]; dosage 80 g/ha): 80%; Post-emergence action against ECHCG in % ([17]; dosage 80 g/ha): 90%; Post-emergence action against MATIN in % [19]: 80%
2 | O=C(O)COc1nn(-c2ncccc2C(F)(F)F)c(-c2ccc(F)nc2)c1Br [Example I-310] | 80 | 100 | – | 90 | 90 | – | 90 | 100 | 100 | 10 | – | 80 | 80 | 80 | 80 | 100 | – | 90 | 80 | 90 | Post-emergence action against VERPE in % [20]: 80%; Pre-emergence action against AVEFA in % (Avena fatua (AVEFA) [21]): 90%; Pre-emergence action against ALOMY [22]: 100%; Pre-emergence action against VIOTR in % (Viola tricolor (VIOTR) [9]; dosage 80 g/ha): 90%; Post-emergence action against ZEAMX in % (Zea mays (ZEAMX) [23]): 0%; Post-emergence action against ORYSA in % (Oryza sativa (ORYSA) [11]; 320 g/ha): 20%; Post-emergence action against ALOMY in % [24]: 90%; Pre-emergence action against ZEAMX in % (Zea mays (ZEAMX) [25]): 0%; Pre-emergence action against ORYSA in % (Oryza sativa (ORYSA) [26]): 0%; Pre-emergence action against ABUTH [27]: 80%
3 | COCCOC(=O)COc1nn(-c2cccc(C)n2)c(-c2ccc(F)nc2)c1Br [Example I-277] | – | 80 | 80 | – | – | 80 | – | – | 90 | 10 | 80 | – | – | – | – | – | 0 | 80 | – | – | Post-emergence action against VERPE in % [20]: 80%; Post-emergence action against ZEAMX in % (Zea mays (ZEAMX) [23]): 10%; Post-emergence action against TRZAS in % ([28]; 80 g/ha): 0%; Post-emergence action against TRZAS in % ([28]; 320 g/ha): 20%; Post-emergence action against PHBPU in % [29]: 80%
